From the NIST ThermoML archive (doi:10.1021/je049576k)
± gives the expanded uncertainty stated by the source.

Conditions: 101.33 kPa, Liquid

mass density (298.15 K)	viscosity (298.15 K)	mass density (313.15 K)	viscosity (313.15 K)	SMILES
1058.62 ± 0.58 kg/m3	0.5886 ± 0.0084 mPa·s	1039.97 ± 0.56 kg/m3	0.4985 ± 0.0074 mPa·s	C1COCO1 [1,3-dioxolane]
802.2 ± 0.6 kg/m3	3.043 ± 0.037 mPa·s	789.59 ± 0.61 kg/m3	1.791 ± 0.023 mPa·s	CCC(C)O (configuration not stated) [butan-2-ol]
655.07 ± 0.75 kg/m3	0.2951 ± 0.005 mPa·s	641.27 ± 0.77 kg/m3	0.2552 ± 0.0045 mPa·s	CCCCCC [hexane]
